Several values for one entry are separate records, joined by “and”; a condition that tells them apart may be missing. Equal entries are not always repeated.

On to `O=C5\C=C4/C(C3CCC2(C(CCC2OC(=O)Cc1ccccc1)C3CC4)C)(C)CC5` (configuration not stated) [Testosterone phenylacetate], for which the melting point was 129 °C.

`CC(C)CCCCC(C)C` [2,7-dimethyloctane]: the melting point is -54 °C.

On to `CCOC(=O)Nc1ccc(C)cc1[N+](=O)[O-]` [Ethyl (4-methyl-2-nitrophenyl)carbamate], for which the melting point was 65 °C.

`COC(=O)[C@H]1[C@@H](OC(=O)c2ccccc2)C[C@@H]2CC[C@H]1N2C` [cocaine] had a melting point of 98 °C.

Turning to `O=C(CCl)Nc1cccc([N+](=O)[O-])c1` [2-chloro-3'-nitroacetanilide], the melting point is 114 °C.

Compound `C[C@@H](O)[C@H](NC(=O)OCc1ccccc1)C(=O)O` [N-benzyloxycarbonyl-l-threonine] registered a melting point of 98 °C.

For the compound `COc1ccccc1` [anisole], the melting point is -37 °C.

In the case of `CCOC(=O)CCCCC(=O)OCC` [diethyl_adipate], the melting point is -18 °C.

In turn, `CC(=O)c1ccccc1-c1ccccc1` [2-acetylbiphenyl] came in with a melting point of 56 °C.

For the compound `CC(CC(=O)O)CC(C)(C)C` (configuration not stated) [3,5,5-trimethylhexanoic acid], the melting point was -70 °C.

Compound `O=[N+]([O-])c1ccc(/N=N/c2c(O)ccc3ccccc23)cc1` [1-[(E)-(4-Nitrophenyl)diazenyl]-2-naphthol] showed a melting point of 250 °C.

With `C[C@]12CCC(O)CC1CC[C@@H]1[C@@H]2CC[C@@]2(C)[C@H]1CC[C@]2(O)C#Cc1ccccc1` (some centres not stated) [21-phenylpregn-20-yne-3,17-diol], the melting point was 122 °C.

Compound `CCOC(=O)CCC(C)C1CCC2C3C=CC4CC(OC(C)=O)CCC4(C)C3CC(OC(C)=O)C12C` (configuration not stated) [ethyl 3,12-bis(acetyloxy)chol-6-en-24-oate] came in with a melting point of 84 °C.

In the case of `O=C(N[C@H](Cc1ccccc1)C(=O)O)OCc1ccccc1` [N-benzyloxycarbonyl-D-phenylalanine], the melting point is 86 °C.

`CC(C(=O)O)c1ccc(-c2ccccc2)c(F)c1` (configuration not stated) [flurbiprofen]: the melting point was 111 °C (2×) and 115 °C and 110 °C.

On to `OB(O)c1ccc(OCc2ccccc2)c(F)c1` [4-benzyloxy-3-fluorobenzeneboronic acid], for which the melting point is 130 °C.

With `Cc1ccnc(NS(=O)(=O)c2ccc(N)cc2)n1` [sulfamerazine], the melting point is 235 °C.

In turn, `COc1ccc2c(c1)CC2O` (configuration not stated) [3-methoxybicyclo[4.2.0]octa-1,3,5-trien-7-ol] registered a melting point of 38 °C.

On to `C=C(Cl)CCl` [2,3-dichloro-1-propene], for which the melting point is -83 °C.

As to `CC12CCC(O)CC1CC1(OCCO1)C1C2CCC2(C)C1CCC21OCCO1` (configuration not stated), the melting point was found to be 101 °C.

In turn, `CCOC(=O)Cc1c(C)n(C(=O)c2ccc(Cl)cc2)c2ccc(OC)cc12` [Indomethacin ethyl ester] returned a melting point of 96 °C.

Take `[O-][n+]1c(Cl)cccc1Cl` [2,6-dichloropyridine n-oxide]: the melting point came out at 138 °C.

For `CCCCCCCCCCCCCCCCCCCCCCCCCC` [N-hexacosane], the melting point worked out at 57 °C.

`OC(c1ccccc1)c1ccccc1` [benzhydrol] gave a melting point of 66 °C.

With `COc1ccc(NC(=S)c2cc(C(C)(C)C)c(O)c(C(C)(C)C)c2)cc1`, the melting point turned out to be 129 °C.

`O=C(N[C@H](CO)[C@H](O)c1ccc([N+](=O)[O-])cc1)C(Cl)Cl` [chloramphenicol] displayed a melting point of 151 °C.

For the compound `C#CCCO` [3-butyn-1-ol], the melting point is -63 °C.

`O=c1ncn2nc(Sc3ccccc3)ccc2c1-c1c(Cl)cccc1Cl`: the melting point worked out at 264 °C.

For the compound `Nc1ccc2c(c1)C(=O)c1ccccc1C2=O` [2-Amino-9,10-anthraquinone], the melting point was found to be 295 °C.

On to `Clc1ccc(Cl)c(Cl)c1` [1,2,4-trichlorobenzene], for which the melting point was 17 °C.

`N#Cc1cc(C#N)c(C#N)cc1C#N` [Benzene-1,2,4,5-tetracarbonitrile] had a melting point of 265 °C.

On to `ClCCBr` [1-bromo-2-chloroethane], for which the melting point was -17 °C.

For the origin of these results see the Bradley open melting point set (2014).
